Patent publication US5652222A, “Selective inhibition of leukemic cell proliferation by bcr-abl antisense oligonucleotides” (Temple University-of The Commonwealth System of Higher …, priority 1993, dated 1997)
Entries after “also recorded” stand apart in the source; their conditions may differ.

Assays:
CML chronic phase = details: cited from earlier work; for control of the excessive granulopoiesis of CML: human, in vivo; for median survival: standard approach to treatment of CML chronic phase
[1] = test system: nucleic acid synthesis in both normal and leukemic cells; details: cited from earlier work
chronic phase CML = details: cited from earlier work
[2] = test system: cells of CML patients in blast crisis, K-28 (b3a2) type junction; experiment: Colony formation of CML blast crisis patient cells expressing the b3a2 (K-28) junction; type: cell-based, human; details: for Number of Colonies, Antisense-treated: conditions of Example 1
Text: To identify CML blast crisis patients carrying the second common type junction, in which bcr exon 3 is juxtaposed to c-abl exon 2, total RNA derived from cells of CML patients in blast crisis was reverse-transcribedwith synthetic primers. The 3' primer (SEQ ID NO:10) was complementary to 22 nucleotides of c-abl. exon 2. The 5' primer was the 22-mer GTCATCGTCCACTCAGCCACTG (SEQ ID NO:12) complementary to 22 nucleotides of bcr exon 3. The RNA was amplified by polymerase chain reaction according to Example 1. The amplification products were then hybridized with the synthetic 18-mer oligonucleotide GAAGGGCTTT TGAACTCT (SEQ ID NO:6), which is complementary to the b3a2 junction. After cloning of breakpoints in two patients, sequence analysis of several clones identified the b3a2 junction as precisely corresponding to the K-28 breakpoint shown in FIG. 3. (SEQ ID NO:4).
Utilizing the culture condition and oligomer treatment conditions of Example 1, cells were exposed to either no oligomer (FIG. 4A), the 18-nucleotide synthetic oligomer GAAGTGCTGT TGAACTCT (SEQ ID NO:5) partially complementary to the b3a2 junction, containing 9 nucleotides corresponding to bcr and 9 nucleotides corresponding to c-abl but with two mismatches (FIG. 4B); or the 18-nucleotide synthetic oligomer GAAGGGCTTT TGAACTCT (SEQ ID NO:6) completely complementary to the same bcr-abl junction (FIG. 4C).

BV173 cells (b2/a2) = experiment: Proliferation of BV173 cells expressing b2a2 junction; type: cell-based, human; details: in comparison to untreated control cells (FIG. 7)
Method: Amplification of the bcr-abl junction with a 5' primer corresponding to bcr exon 2, and a 3' primer corresponding to abl exon 2, followed by hybridization to an 18-mer specific for the b2/a2 or the b3/a2 junction identified the b2/a2 breakpoint in these cells (data not shown).
The sensitivity of the BV173 cells to b2/a2 antisense phosphorothioate oligodeoxynucleotides was assessed. Phosphorothioate oligodeoxynucleotides were prepared on either an Applied Biosystems Model 380B or 390Z Automated Synthesis instrument using conventional phosphoramidite monomers and manufacturer-recommended procedures, which included substitution of tetraethylthiuran (or an equivalent sulfur-donor reagent) for iodine-water-pyridine, […] reversed-phase preparative chromatography, detritylation, and obtaining the final product in the form of its sodium salt, all according to previously published methodology: Zon and Stec, in Oligonucleotides and Analogues A Practical Approach, F. Eckstein, Ed. (Oxford Univerisity Press, Oxford 1991), pp. 87-108; Zon and Geiser, Anti-Cancer Drug Design 6, 539 (1991); Vu and Hirschenbein, Tetrahedron Lett. 32, 3005-3008 (1991).
BV173 cells were cultured in the presence of phosphorothioate b2/a2 antisense 26-mer CGCTGAAGGG CTTCTTCCT ATTGAT (SEQ ID NO:29), the phosphorothioate sense sequence ATCAATAAGGAAGCCCTTCAGCG (SEQUENCE ID NO:34), or the b3/a2 (SEQ ID NO:31) or b1/a2 (SEQ ID N0:33) phosphorothioate antisense 26-mer. […] The sense oligomer SEQ ID NO:34 gave no inhibition (FIG. 7, -.largecircle.-) in comparison to untreated control cells (FIG. 7, -.quadrature.-).

[3] = alpha-interferon treated CML patients

Row | Compound | control of the excessive granulopoiesis of CML (CML chronic phase) | median survival (CML chronic phase) | inhibition of nucleic acid synthesis [1] | inhibition of proliferation of BV173 cells (BV173 cells (b2/a2)) | other results
1 | CS(=O)(=O)OCCCCOS(C)(=O)=O [busulfan] | useful in the control of the excessive granulopoiesis of CML | about 47 months | inhibit nucleic acid synthesis in both normal and leukemic cells; also recorded: inhibit nucleic acid synthesis both in normal and leukemic cells |  | 
2 | NC(=O)NO [hydroxyurea] | useful in the control of the excessive granulopoiesis of CML | about 47 months | inhibit nucleic acid synthesis in both normal and leukemic cells; also recorded: inhibit nucleic acid synthesis both in normal and leukemic cells |  | 
3 | Alpha-interferon |  |  |  |  | patients with normalization of the blood count (chronic phase CML; 3-9 million units intramuscularly each day, chronic phase CML): about three quarters; side effects (chronic phase CML; CML patients): fever, anorexia, muscle and bone pain, depression, and often immune thrombocytopenia; patients with a decrease in Ph1-chromosome-containing metaphases (chronic phase CML; [3]): more than one third; treated patients having fewer than 5% Ph1-positive cells (chronic phase CML; [3]): about 15%; specificity of effect on leukemic clone (chronic phase CML; human, in vivo): non-specific, as indicated by the persistence of Ph^1 leukemic cells and the inhibition of normal hematopoietic cell growth
4 | SEQ ID NO:6: 18-nucleotide synthetic oligomer GAAGGGCTTT TGAACTCT completely complementary to the b3a2 (K-28) junction (antisense GAAGGGCTTTTGAACTCT; further chemistry not given here) |  |  |  |  | Number of Colonies, Antisense-treated ([2]; Table 2, patient 1, untreated 278 ± 28): 102 ± 14 colonies; Number of Colonies, Antisense-treated ([2]; Table 2, patient 2, untreated 182 ± 18): 68 ± 12 colonies; % Inhibition ([2]; Table 2, patient 2, number of colonies vs untreated): 63%
5 | SEQ ID NO:31: b3/a2 phosphorothioate antisense 26-mer CGCTGAAGGGCTT TTGAA&TCTGCTT (antisense CGCTGAAGGGCTTTTGAACTCTGCTT; all phosphorothioate, sugars by position and methylation of C not given here) |  |  |  | Only the b2/a2 antisense oligodeoxynucleotide inhibited the proliferation of BV173 cells | 
6 | SEQ ID NO:33: b1/a2 phosphorothioate antisense 26-mer CGCTGAAGGGCTT CTGCGTCTCCATG (antisense CGCTGAAGGGCTTCTGCGTCTCCATG; all phosphorothioate, sugars by position and methylation of C not given here) |  |  |  | Only the b2/a2 antisense oligodeoxynucleotide inhibited the proliferation of BV173 cells | 
